In ChEMBL document CHEMBL1201862, “PubChem BioAssay data set” (2004):
The source made the active and inactive calls.

Tests used:
Melanocortin receptor 4 [1] = target: T1, Melanocortin receptor 4 (Homo sapiens, UniProt P32245); assay: inhibitors of MC4R cAMP signaling – cell-based, TR-FRET, biased antagonists, dose response (AID 602298); type: functional;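 further: antagonist potency against agonist-stimulated cAMP production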
[2] = cAMP pathway inhibition in counterscreen cell line – TR-FRET cAMP detection, counter-screen for MC4R biased antagonist project, dose response (AID 602305); type: functional, cell-based;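 further: U2OS cells stimulated with forskolin near its EC80 as the cAMP inducer; potency is for inhibition of forskolin-stimulated cAMP signaling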
HEK293 [3] = assay: membrane integrity loss in HEK cells – cell-based, fluorescence, cytotoxicity control for IDE activator project, dose response (AID 588440); type: functional; conditions: Homo sapiens;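 further: cytotoxicity by LDH release measuring loss of membrane integrity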
HEK293 [4] = assay: optical interference in Abeta FP readout, dose response, artefact control for IDE activator project, biochemical, fluorescence polarization (AID 588442); type: functional, cell-based; conditions: Homo sapiens
Insulin-degrading enzyme [5] = target: T2, Insulin-degrading enzyme (Homo sapiens, UniProt P14735); assay: cellular IDE activation of Abeta substrate cleavage – fluorescence polarization, HEK cells, dose response (AID 588439); type: functional, cell-based
T2 sequence (P14735 whole entry): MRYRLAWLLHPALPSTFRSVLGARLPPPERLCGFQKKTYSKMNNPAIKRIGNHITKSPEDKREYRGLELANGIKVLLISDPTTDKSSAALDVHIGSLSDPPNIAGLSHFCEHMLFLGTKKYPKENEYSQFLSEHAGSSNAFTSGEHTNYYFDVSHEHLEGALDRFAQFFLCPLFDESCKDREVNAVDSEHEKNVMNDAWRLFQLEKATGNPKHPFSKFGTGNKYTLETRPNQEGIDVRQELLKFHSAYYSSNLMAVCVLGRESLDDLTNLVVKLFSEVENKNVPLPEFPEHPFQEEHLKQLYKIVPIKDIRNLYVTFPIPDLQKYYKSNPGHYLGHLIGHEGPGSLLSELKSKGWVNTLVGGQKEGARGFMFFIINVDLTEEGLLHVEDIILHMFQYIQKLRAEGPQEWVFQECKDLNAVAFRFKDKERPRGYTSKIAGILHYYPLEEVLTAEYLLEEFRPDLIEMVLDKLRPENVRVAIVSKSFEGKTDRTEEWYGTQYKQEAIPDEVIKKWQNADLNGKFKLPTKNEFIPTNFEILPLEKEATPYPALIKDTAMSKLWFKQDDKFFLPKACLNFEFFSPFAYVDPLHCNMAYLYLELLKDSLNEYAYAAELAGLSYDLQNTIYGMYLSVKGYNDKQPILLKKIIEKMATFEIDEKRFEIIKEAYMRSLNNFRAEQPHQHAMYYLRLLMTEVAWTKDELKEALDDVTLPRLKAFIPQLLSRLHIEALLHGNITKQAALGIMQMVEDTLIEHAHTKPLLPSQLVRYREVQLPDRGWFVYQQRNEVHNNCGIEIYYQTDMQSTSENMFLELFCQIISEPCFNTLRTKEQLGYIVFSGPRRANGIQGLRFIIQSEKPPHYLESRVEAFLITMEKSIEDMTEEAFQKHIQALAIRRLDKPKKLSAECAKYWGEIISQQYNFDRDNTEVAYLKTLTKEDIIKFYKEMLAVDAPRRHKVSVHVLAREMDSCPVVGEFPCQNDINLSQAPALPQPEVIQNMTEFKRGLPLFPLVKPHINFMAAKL

Insulin-degrading enzyme [6] = target: T2, Insulin-degrading enzyme; assay: recombinant IDE activation, cell-free – biochemical, fluorescence polarization, counter-screen for IDE activator project, dose response (AID 588681)
[7] = target: T3, Sentrin-specific protease 6 (Homo sapiens, UniProt Q9GZR1); assay: inhibition of human SENP6 catalytic domain – biochemical, luminescence, set 2, SAR follow-up (AID 588598); type: functional
T3 sequence (Q9GZR1 whole entry): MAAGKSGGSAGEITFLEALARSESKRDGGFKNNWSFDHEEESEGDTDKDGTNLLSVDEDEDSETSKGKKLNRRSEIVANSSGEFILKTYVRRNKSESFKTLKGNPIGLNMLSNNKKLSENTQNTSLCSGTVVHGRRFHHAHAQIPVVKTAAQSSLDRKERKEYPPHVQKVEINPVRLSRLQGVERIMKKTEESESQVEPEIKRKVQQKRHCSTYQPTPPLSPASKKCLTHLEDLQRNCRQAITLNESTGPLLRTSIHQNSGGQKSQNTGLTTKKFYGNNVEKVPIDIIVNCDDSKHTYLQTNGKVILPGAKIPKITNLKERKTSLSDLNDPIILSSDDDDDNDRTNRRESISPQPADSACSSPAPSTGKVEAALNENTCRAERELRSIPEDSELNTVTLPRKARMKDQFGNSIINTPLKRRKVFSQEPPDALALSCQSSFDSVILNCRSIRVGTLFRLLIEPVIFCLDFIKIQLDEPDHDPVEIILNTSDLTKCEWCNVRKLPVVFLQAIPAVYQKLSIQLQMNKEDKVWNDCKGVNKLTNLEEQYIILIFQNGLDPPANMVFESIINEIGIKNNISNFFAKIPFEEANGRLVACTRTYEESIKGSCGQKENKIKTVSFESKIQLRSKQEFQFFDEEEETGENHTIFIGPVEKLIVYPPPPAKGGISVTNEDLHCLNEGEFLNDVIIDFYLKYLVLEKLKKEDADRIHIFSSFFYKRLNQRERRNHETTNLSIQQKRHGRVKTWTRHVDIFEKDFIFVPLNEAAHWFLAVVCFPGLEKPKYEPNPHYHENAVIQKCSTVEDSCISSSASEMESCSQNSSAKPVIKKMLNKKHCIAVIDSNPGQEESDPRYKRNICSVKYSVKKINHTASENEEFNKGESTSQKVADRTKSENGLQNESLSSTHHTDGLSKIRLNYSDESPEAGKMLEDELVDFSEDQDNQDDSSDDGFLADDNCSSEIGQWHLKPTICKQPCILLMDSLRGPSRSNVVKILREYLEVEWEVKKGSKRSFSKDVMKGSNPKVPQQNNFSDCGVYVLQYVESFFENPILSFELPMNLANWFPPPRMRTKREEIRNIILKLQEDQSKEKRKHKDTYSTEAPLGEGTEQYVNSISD

[8] = target: T4, Sentrin-specific protease 8 (Homo sapiens, UniProt Q96LD8); assay: inhibition of sentrin protease 8 – biochemical, luminescence, set 2, SAR follow-up (AID 588601); type: functional
T4 sequence (Q96LD8 whole entry): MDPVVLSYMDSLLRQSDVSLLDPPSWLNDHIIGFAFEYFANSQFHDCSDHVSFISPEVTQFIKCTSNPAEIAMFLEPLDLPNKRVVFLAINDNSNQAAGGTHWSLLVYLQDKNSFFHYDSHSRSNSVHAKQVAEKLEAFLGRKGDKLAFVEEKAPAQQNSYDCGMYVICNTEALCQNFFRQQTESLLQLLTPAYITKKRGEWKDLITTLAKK

Caspase-3 = target: T5, Caspase-3 (Homo sapiens, UniProt P42574); assay: inhibition of recombinant caspase-3 activity – biochemical, luminescence, set 2, selectivity assay for SENP protease inhibitor project, SAR follow-up (AID 588599); type: functional
T5 sequence (P42574 whole entry): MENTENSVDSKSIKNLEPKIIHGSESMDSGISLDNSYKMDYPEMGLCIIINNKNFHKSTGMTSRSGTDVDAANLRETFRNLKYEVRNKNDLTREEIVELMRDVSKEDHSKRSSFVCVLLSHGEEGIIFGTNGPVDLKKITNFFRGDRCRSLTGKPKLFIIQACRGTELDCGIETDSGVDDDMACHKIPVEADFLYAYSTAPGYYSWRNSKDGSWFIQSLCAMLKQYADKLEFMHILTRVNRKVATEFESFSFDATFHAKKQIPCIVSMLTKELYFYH

[9] = target: T6, Sentrin-specific protease 7 (Homo sapiens, UniProt Q9BQF6); assay: inhibition of human SENP7 cleavage activity – biochemical, luminescence, set 2, SAR follow-up (AID 588600); type: functional
T6 sequence (Q9BQF6 whole entry): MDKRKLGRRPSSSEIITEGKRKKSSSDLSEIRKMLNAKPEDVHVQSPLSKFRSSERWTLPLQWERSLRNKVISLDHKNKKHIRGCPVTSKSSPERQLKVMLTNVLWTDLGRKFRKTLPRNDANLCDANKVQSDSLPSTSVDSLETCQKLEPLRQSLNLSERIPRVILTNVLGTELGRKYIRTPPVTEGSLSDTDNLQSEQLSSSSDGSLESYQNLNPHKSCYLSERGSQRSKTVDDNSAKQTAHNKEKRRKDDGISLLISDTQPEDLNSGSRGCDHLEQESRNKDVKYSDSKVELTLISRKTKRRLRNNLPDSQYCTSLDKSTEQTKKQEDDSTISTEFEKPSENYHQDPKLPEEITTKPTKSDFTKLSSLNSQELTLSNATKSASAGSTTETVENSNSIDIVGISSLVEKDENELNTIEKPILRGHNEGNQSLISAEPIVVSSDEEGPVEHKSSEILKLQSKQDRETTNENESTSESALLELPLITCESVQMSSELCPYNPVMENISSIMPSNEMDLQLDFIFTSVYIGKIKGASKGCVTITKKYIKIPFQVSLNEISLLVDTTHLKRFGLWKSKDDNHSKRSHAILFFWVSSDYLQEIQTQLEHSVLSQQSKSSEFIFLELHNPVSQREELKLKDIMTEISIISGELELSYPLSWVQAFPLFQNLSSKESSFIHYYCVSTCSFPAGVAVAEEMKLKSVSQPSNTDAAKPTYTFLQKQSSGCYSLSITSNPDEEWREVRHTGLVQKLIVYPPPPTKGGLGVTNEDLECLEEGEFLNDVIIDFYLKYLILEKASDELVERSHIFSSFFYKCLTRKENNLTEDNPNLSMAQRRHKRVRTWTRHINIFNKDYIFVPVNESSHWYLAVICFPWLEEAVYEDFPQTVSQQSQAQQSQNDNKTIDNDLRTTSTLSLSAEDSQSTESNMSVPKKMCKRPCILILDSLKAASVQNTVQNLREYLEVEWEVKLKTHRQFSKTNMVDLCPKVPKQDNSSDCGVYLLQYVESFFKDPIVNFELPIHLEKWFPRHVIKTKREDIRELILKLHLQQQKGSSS

[10] = blockers of CAL PDZ–TMR peptide complex – biochemical, fluorescence polarization, untagged CAL PDZ, cherry-pick, set 2, dose response (AID 602254); type: functional
Melanocortin receptor 4 [11] = target: T1, Melanocortin receptor 4; type: functional, cell-based
[12] = target: T7, Ubiquitin-conjugating enzyme E2 N (Homo sapiens, UniProt P61088); type: functional
T7 sequence (P61088 whole entry): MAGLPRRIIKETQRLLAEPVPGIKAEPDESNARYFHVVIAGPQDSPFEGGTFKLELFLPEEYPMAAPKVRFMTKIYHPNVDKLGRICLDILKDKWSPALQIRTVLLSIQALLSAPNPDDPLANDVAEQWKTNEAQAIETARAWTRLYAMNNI

[13] = target: T7, Ubiquitin-conjugating enzyme E2 N; type: functional; remark: listed apart in the source
[14] = target: T8, Alkaline phosphatase, tissue-nonspecific isozyme (Homo sapiens, UniProt P05186); assay: TNAP enzyme inhibition by screening hits, dose response, selectivity assay for mouse IAP inhibitor project, biochemical, human TNAP, uHTS hits (AID 488906); type: functional
T8 sequence (P05186 whole entry): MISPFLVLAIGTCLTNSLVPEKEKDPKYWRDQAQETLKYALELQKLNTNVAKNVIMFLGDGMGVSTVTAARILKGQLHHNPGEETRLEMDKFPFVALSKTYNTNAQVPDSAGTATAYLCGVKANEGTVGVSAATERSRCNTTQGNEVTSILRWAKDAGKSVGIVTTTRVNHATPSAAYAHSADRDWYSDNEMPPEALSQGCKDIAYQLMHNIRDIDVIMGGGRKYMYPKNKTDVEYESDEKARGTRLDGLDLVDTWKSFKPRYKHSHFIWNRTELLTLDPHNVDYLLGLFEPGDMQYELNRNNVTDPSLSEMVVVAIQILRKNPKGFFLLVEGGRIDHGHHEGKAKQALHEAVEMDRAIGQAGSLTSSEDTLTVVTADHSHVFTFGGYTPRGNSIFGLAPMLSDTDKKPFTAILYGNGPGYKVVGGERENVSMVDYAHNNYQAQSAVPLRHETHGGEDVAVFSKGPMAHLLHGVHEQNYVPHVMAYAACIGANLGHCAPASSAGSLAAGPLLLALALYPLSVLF

[15] = target: Intestinal-type alkaline phosphatase (Homo sapiens, UniProt P09923); assay: inhibition of human intestinal alkaline phosphatase – biochemical, dose response (AID 488876); type: functional
Chain of Intestinal-type alkaline phosphatase (Homo sapiens, UniProt P09923) (P09923 whole entry): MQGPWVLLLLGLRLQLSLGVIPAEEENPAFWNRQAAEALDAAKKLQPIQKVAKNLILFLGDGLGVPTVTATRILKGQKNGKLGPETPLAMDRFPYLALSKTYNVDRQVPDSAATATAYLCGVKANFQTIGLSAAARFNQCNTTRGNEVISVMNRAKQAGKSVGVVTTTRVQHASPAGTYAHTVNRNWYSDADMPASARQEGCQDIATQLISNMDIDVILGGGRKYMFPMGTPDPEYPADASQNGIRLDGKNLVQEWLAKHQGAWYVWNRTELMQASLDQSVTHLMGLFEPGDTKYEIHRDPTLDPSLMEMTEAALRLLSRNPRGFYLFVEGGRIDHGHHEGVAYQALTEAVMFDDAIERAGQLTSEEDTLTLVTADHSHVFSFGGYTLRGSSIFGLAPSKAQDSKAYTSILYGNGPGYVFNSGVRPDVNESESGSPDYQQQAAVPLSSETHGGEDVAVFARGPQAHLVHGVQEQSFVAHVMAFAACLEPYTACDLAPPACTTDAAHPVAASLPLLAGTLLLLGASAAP

[16] = target: Intestinal-type alkaline phosphatase (Mus musculus, UniProt P24822); assay: PubChem AID 488785; type: functional
Chain of Intestinal-type alkaline phosphatase (Mus musculus, UniProt P24822) (P24822 whole entry): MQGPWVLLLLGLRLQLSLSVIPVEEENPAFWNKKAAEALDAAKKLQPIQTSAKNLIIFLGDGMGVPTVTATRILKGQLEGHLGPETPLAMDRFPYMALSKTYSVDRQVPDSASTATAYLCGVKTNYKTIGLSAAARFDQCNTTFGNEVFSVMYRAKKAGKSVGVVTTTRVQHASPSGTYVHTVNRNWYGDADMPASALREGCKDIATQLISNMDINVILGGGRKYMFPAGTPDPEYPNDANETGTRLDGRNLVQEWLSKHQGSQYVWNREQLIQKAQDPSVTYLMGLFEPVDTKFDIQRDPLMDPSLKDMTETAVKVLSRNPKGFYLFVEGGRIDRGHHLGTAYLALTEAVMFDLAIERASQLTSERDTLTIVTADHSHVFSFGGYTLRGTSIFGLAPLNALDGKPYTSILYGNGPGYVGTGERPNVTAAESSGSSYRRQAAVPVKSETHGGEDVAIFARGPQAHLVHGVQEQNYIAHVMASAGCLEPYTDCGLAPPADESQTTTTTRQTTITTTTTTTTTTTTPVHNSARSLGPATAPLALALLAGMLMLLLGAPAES

Bcl-2-related protein A1 = target: T9, Bcl-2-related protein A1 (Mus musculus, UniProt Q07440); type: functional;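 further: confirmatory dose–response counterscreen on Bfl-1, used to check hits from a UBC13 polyubiquitin inhibitor campaign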
T9 sequence (Q07440 whole entry): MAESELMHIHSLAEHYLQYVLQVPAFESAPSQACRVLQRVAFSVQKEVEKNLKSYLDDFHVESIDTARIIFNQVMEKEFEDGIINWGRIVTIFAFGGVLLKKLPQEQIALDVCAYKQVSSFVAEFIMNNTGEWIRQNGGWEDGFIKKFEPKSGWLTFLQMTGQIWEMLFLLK

T1 sequence (P32245 whole entry): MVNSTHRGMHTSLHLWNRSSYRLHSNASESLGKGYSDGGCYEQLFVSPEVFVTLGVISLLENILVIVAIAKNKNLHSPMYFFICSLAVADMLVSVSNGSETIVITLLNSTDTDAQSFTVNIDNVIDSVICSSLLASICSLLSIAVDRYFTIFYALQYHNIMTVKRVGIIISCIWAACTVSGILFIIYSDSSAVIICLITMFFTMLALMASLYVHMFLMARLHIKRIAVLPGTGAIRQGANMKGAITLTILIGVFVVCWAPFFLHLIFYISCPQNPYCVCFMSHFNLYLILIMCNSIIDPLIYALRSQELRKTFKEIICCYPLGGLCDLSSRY

Compound: Cc1ccc(-c2nn(-c3ccccc3)cc2NC(=O)CCl)cc1
- IC50 (Melanocortin receptor 4 [1]): > 7.18 µM (active)
- IC50 [2]: > 64.6 µM (inactive)

Compound: CCN(CC)CCNC(=O)C[S+]([O-])Cc1nc(-c2ccccc2Cl)oc1C (configuration not stated)
- IC50 (HEK293 [3]): > 89.2 µM (inactive)
- EC50 (HEK293 [4]): > 55.9 µM (inactive)
- EC50 (Insulin-degrading enzyme [5]): > 54.7 µM (inactive)
- EC50 (Insulin-degrading enzyme [6]): > 54.7 µM (inactive)

Compound: Cc1[nH]c2ccccc2c1C(=O)C(=O)NCc1cc(-c2cc3ccccc3o2)on1
- IC50 [7]: > 99 µM (inactive)
- IC50 [8]: > 99 µM (inactive)
- IC50 (Caspase-3): > 99 µM (inactive)
- IC50 [9]: > 99 µM (inactive)

Compound: Cc1ccc(-c2nc(C)sc2CC(=O)OCC(=O)Nc2ccc(F)c(Cl)c2)cc1
- AC50 [10]: 110 µM (active)

Compound: Cc1ccc(C(=O)Nc2nc(C(N)Cc3ccc(C(F)(F)F)cc3)cs2)cc1 (configuration not stated)
- EC50 (Melanocortin receptor 4 [11]): > 89.2 µM (inactive)

Compound: C#CCOCCOCCOCCNc1nc(N2CCN(C(=O)CCCCCCCCCCNC(=O)Cn3cc(CCCCCN)nn3)CC2)nc(N2CCN(C(=O)CCCCCCCCCCNC(=O)[C@@H](CCSC)n3cc(CCO)nn3)CC2)n1
- IC50 [12]: 4.6 µM (active)
- IC50 (HEK293 [3]): 14.5 µM (inactive)
- IC50 [13]: 6.59 µM (active)
- IC50 [14]: > 100 µM (inactive)
- IC50 [15]: > 100 µM (inactive)
- EC50 (HEK293 [4]): > 54.7 µM (inactive)
- EC50 (Insulin-degrading enzyme [5]): > 6.08 µM (active)
- IC50 [16]: 6.92 µM (active)
- IC50 (Bcl-2-related protein A1): 18.5 µM (active)
- EC50 (Insulin-degrading enzyme [6]): > 54.7 µM (inactive)
